The target in one experiment is T1, BAF3-KIF5B-RET cells (Homo sapiens, UniProt P07949).
T1 construct: fused on or other part: P33176 (Kinesin-1 heavy chain)
As to the kind of experiment: BAF3-KIF5B-RET Cell proliferation assay (CellTiter-Glo, 72 hours). Conditions: growth inhibition, read-out: BA/F3-KIF5B-RET Cellular activity. Type of experiment: cell-based. The essentials:
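Cells seeded at 2,000/well in RPMI-1640 with 10% FBS and left 24 h at 37 °C, then exposed 72 h to nine compound levels (final 1 μM down to 0.00015 μM, 0.1% DMSO). CellTiter-Glo luminescence gave viability versus DMSO wells, from which IC50 was fitted.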

A further experiment deals with T2, human RET kinase (Homo sapiens, UniProt P07949).
T2 construct: purchased Carna 08-159
T2 sequence (P07949 29-1114): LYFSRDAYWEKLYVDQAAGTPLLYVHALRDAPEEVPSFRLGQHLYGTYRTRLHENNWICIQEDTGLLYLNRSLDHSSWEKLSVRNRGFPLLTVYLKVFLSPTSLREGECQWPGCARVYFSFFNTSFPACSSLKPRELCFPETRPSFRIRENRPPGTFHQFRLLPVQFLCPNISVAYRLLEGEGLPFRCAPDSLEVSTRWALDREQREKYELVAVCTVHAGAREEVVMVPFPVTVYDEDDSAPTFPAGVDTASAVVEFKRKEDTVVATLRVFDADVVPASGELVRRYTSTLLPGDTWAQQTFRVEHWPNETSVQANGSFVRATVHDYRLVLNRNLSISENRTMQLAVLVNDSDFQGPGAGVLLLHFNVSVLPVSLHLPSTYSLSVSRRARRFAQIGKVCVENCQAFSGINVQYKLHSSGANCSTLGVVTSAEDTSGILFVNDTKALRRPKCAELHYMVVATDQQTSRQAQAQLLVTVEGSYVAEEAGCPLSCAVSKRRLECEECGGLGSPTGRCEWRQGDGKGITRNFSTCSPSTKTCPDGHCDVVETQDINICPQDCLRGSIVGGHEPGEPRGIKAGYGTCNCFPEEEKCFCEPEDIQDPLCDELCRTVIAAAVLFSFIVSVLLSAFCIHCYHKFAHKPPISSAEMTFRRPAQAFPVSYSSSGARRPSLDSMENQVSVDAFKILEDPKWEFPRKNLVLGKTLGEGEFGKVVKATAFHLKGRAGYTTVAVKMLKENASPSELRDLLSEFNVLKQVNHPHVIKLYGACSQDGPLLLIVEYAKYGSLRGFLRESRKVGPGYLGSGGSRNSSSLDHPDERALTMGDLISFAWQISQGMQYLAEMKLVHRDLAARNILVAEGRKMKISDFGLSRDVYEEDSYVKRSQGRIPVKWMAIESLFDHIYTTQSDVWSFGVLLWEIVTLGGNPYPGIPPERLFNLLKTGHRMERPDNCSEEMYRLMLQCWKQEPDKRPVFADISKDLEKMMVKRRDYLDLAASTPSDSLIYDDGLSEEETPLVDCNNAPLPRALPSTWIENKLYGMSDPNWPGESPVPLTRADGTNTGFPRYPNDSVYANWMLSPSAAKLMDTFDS
Put plainly: RET Kinase Assay (LanthaScreen TR-FRET enzymatic assay). The experiment is classed as biochemical. Conditions: 7 nM RET, 23 μM ATP. Summed up:
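Human RET (7 nM) preincubated 15 min with compound in 50 mM HEPES pH 7.5, 0.0015% Brij-35, then reacted with 3 μM FAM-P2 peptide and 23 μM ATP for 1 h at 28° C.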

Broadly, the IC50 is the midpoint of a concentration-inhibition curve. Higher therefore signals lower potency.

A value given as a limit tells only on which side of the number the result lay.

T1 sequence (P07949 whole entry, change not shown, the tested form may be a part): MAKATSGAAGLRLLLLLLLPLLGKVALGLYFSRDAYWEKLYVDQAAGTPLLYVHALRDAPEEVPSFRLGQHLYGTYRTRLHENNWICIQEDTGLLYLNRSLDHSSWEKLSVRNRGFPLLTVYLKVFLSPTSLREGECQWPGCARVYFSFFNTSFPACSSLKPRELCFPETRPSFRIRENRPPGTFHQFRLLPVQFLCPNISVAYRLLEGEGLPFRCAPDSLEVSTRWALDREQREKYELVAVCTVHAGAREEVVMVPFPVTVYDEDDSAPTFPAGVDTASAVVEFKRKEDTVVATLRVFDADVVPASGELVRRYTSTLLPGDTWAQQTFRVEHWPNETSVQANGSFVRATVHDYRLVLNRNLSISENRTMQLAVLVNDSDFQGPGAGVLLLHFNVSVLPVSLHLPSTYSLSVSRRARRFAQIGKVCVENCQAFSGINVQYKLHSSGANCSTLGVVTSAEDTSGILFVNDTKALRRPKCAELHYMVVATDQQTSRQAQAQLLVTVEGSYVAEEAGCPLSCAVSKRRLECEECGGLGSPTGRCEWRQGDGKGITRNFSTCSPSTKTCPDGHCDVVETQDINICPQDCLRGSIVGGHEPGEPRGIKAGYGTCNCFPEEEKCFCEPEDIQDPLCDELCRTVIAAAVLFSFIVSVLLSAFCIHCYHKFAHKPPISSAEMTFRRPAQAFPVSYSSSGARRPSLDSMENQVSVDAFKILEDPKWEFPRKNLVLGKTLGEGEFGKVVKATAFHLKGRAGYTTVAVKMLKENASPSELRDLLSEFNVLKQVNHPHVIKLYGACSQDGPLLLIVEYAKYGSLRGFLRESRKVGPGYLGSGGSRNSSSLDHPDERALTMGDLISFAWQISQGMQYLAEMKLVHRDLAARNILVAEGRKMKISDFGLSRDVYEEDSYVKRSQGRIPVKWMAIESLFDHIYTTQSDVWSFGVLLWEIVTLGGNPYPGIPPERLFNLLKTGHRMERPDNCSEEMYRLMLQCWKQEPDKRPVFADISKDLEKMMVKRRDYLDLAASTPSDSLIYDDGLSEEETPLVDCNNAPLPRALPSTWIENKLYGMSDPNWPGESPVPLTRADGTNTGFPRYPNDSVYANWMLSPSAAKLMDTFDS

Take `COc1ccc(C(=O)NC23CC4CC(C2)N(c2cnc(-c5cc(OCC(C)(C)O)cn6ncc(C#N)c56)cn2)C(C4)C3)cn1` [Example 166, N-((1R,3S,5s,7s)-2-(5-(3-cyano-6-(2-hydroxy-2-methylpropoxy)pyrazolo[1,5-a]pyridin-4-yl)pyrazin-2-yl)-2-azaadamantan-5-yl)-6-methoxynicotinamide]: the GI50 at BAF3-KIF5B-RET cells was 10 to 50 nM. At human RET kinase, this compound gave an IC50 of no more than 10 nM.
Taken in the same sequence, the figures for `CCOc1cc(-c2cnc(N3C4CC5CC3CC(NC(=O)c3ccc(OC)nc3)(C5)C4)cn2)c2c(C#N)cnn2c1` [Example 167, N-((1R,3S,5s,7s)-2-(5-(3-cyano-6-cthoxypyrazolo[1,5-a]pyridin-4-yl)pyrazin-2-yl)-2-azaadamantan-5-yl)-6-methoxynicotinamide] were 50 to 100 nM and no more than 10 nM.
Turning to `CC(C)(O)COc1cc(-c2cnc(N3C4CC5CC3CC(NC(=O)c3ncccc3F)(C5)C4)cn2)c2c(C#N)cnn2c1` [Example 168, N-((1R,3S,5s,7s)-2-(5-(3-cyano-6-(2-hydroxy-2-methylpropoxy)pyrazolo[1,5-a]pyridin-4-yl)pyrazin-2-yl)-2-azaadamantan-5-yl)-3-fluoropicolinamide], on BAF3-KIF5B-RET cells, the GI50 fell in the range of 10 to 50 nM. In addition, the IC50 at human RET kinase is no more than 10 nM.
Take `CCOc1cc(-c2cnc(N3C4CC5CC3CC(NC(=O)c3ncccc3Cl)(C5)C4)cn2)c2c(C#N)cnn2c1` [Example 169, 3-chloro-N-((1R,3S,5s,7s)-2-(5-(3-cyano-6-ethoxypyrazolo[1,5-a]pyridin-4-yl)pyrazin-2-yl)-2-azaadamantan-5-yl)picolinamide]: the GI50 on BAF3-KIF5B-RET cells is no more than 10 nM. Moreover, at human RET kinase, the concentration for half-maximal inhibition (IC50) is no more than 10 nM.
Turning to `CCOc1cc(-c2cnc(N3C4CC5CC3CC(C(=O)Nc3ccc(OC)nc3)(C5)C4)cn2)c2c(C#N)cnn2c1` [Example 170, (1R,3S,5s,7s)-2-(5-(3-cyano-6-ethoxypyrazolo[1,5-a]pyridin-4-yl)pyrazin-2-yl)-N-(6-methoxypyridin-3-yl)-2-azaadamantane-5-carboxamide], the GI50 at BAF3-KIF5B-RET cells lay in the range of 10 to 50 nM. Moreover, the IC50 on human RET kinase is no more than 10 nM.
Taken in the same sequence, the figures for `COc1ccc(NC(=O)C23CC4CC(C2)N(c2cnc(-c5cc(OCC(C)(C)O)cn6ncc(C#N)c56)cn2)C(C4)C3)cn1` [Example 171, (1R,3S,5s,7s)-2-(5-(3-cyano-6-(2-hydroxy-2-methylpropoxy)pyrazolo[1,5-a]pyridin-4-yl)pyrazin-2-yl)-N-(6-methoxypyridin-3-yl)-2-azaadamantane-5-carboxamide] were 10 to 50 nM and no more than 10 nM.
As to `COc1ccc(C(=O)N[C@@]2(C)C[C@H]3CN(c4ccc(-c5cc(OCC(C)(C)O)cn6ncc(C#N)c56)cn4)C[C@H]3C2)cn1` [Example 172, N-((3aR,5r,6aS)-2-(5-(3-cyano-6-(2-hydroxy-2-methylpropoxy)pyrazolo[1,5-a]pyridin-4-yl)pyridin-2-yl)-5-methyloctahydrocyclopenta[c]pyrrol-5-yl)-6-methoxynicotinamide], at BAF3-KIF5B-RET cells, the GI50 was greater than 100 nM. The IC50 against human RET kinase fell in the range of 10 to 50 nM.
The matching figures for `Cn1cc(-c2cc(-c3ccc(N4C[C@@H]5C[C@](C)(NC(=O)c6ncccc6Cl)C[C@@H]5C4)nc3)c3c(C#N)cnn3c2)cn1` [Example 173, 3-chloro-N-((3aR,5r,6aS)-2-(5-(3-cyano-6-(1-methyl-1H-pyrazol-4-yl)pyrazolo[1,5-a]pyridin-4-yl)pyridin-2-yl)-5-methyloctahydrocyclopenta[c]pyrrol-5-yl)picolinamide]: no more than 10 nM and no more than 10 nM.
The matching figures for `COc1ccc(C(=O)N2[C@@H]3CC[C@H]2[C@H]2CN(c4ccc(-c5cc(OCC(C)(C)O)cn6ncc(C#N)c56)cn4)C[C@H]23)cn1` [Example 174, 6-(2-hydroxy-2-methylpropoxy)-4-(6-((3aR,4S,7R,7aS)-8-(6-methoxynicotinoyl)hexahydro-1H-4,7-epiminoisoindol-2(3H)-yl)pyridin-3-yl)pyrazolo[1,5-a]pyridine-3-carbonitrile]: 10 to 50 nM and no more than 10 nM.
The matching figures for `COc1ccc(C(C)N2C[C@H]3CN(c4cnc(-c5cc(OCC(C)(C)O)cn6ncc(C#N)c56)cn4)C[C@H]3C2)cn1` (stereo partly drawn) [Example 176, 6-(2-hydroxy-2-methylpropoxy)-4-(5-((3aR,6aS)-5-(1-(6-methoxypyridin-3-yl)ethyl)hexahydropyrrolo[3,4-c]pyrrol-2(1H)-yl)pyrazin-2-yl)pyrazolo[1,5-a]pyridine-3-carbonitrile]: greater than 100 nM and 50 to 100 nM.
Regarding `CC(C)(O)COc1cc(-c2cnc(N3C[C@H]4CN(Cc5ccc(C#N)nc5)C[C@H]4C3)cn2)c2c(C#N)cnn2c1` [Example 177, 4-(5-((3aR,6aS)-5-((6-cyanopyridin-3-yl)methyl)hexahydropyrrolo[3,4-c]pyrrol-2(1H)-yl)pyrazin-2-yl)-6-(2-hydroxy-2-methylpropoxy)pyrazolo[1,5-a]pyridine-3-carbonitrile], the GI50 at BAF3-KIF5B-RET cells was greater than 100 nM. Further, on human RET kinase, the IC50 fell in the range of 50 to 100 nM.
`COc1ccc(C(=O)NC23CC4CC(C2)N(c2ccc(-c5cc(-c6cnn(C)c6)cn6ncc(C#N)c56)cn2)C(C4)C3)cn1` [Example 188, N-((1R,3S,5s,7s)-2-(5-(3-cyano-6-(1-methyl-1H-pyrazol-4-yl)pyrazolo[1,5-a]pyridin-4-yl)pyridin-2-yl)-2-azaadainantan-5-yl)-6-methoxynicotinamide]: the GI50 on BAF3-KIF5B-RET cells is no more than 10 nM. Further, the IC50 at human RET kinase is no more than 10 nM.
As to `COc1ccc(NC(=O)C23CC4CC(C2)N(c2ccc(-c5cc(-c6cnn(C)c6)cn6ncc(C#N)c56)cn2)C(C4)C3)cn1` [Example 189, (1R,3S,5s,7s)-2-(5-(3-cyano-6-(1-methyl-1H-pyrazol-4-yl)pyrazolo[1,5-a]pyridin-4-yl)pyridin-2-yl)-N-(6-methoxypyridin-3-yl)-2-azaadamantane-5-carboxamide], at BAF3-KIF5B-RET cells, the GI50 is no more than 10 nM. Also, the IC50 against human RET kinase is no more than 10 nM.
As to `COc1ccc(CC(=O)N[C@H]2[C@@H]3CN(c4ccc(-c5cc(OCC(C)(C)O)cn6ncc(C#N)c56)cn4)C[C@@H]32)cn1` [Example 190, N-((1R,5S,6s)-3-(5-(3-cyano-6-(2-hydroxy-2-methylpropoxy)pyrazolo[1,5-a]pyridin-4-yl)pyridin-2-yl)-3-azabicyclo[3.1.0]hexan-6-yl)-2-(6-methoxypyridin-3-yl)acetamide], at BAF3-KIF5B-RET cells, the GI50 was greater than 100 nM. The compound also registered an IC50 against human RET kinase of 50 to 100 nM.
Consider `COc1cccnc1C(=O)NC[C@@H]1[C@H]2CN(c3ccc(-c4cc(-c5cnn(C)c5)cn5ncc(C#N)c45)cn3)C[C@@H]12` [Example 191, N-(((1R,5S,6s)-3-(5-(3-cyano-6-(1-methyl-1H-pyrazol-4-yl)pyrazolo[1,5-a]pyridin-4-yl)pyridin-2-yl)-3-azabicyclo[3.1.0]hexan-6-yl)methyl)-3-methoxypicolinamide], for which the GI50 on BAF3-KIF5B-RET cells was no more than 10 nM. This compound also displayed an IC50 against human RET kinase of no more than 10 nM.
`COc1cncc(C(=O)NC[C@@H]2[C@H]3CN(c4ccc(-c5cc(-c6cnn(C)c6)cn6ncc(C#N)c56)cn4)C[C@@H]23)c1` [Example 192, N-(((1R,5S,6s)-3-(5-(3-cyano-6-(1-methyl-1H-pyrazol-4-yl)pyrazolo[1,5-a]pyridin-4-yl)pyridin-2-yl)-3-azabicyclo[3.1.0]hexan-6-yl)methyl)-5-methoxynicotinainide]: the GI50 at BAF3-KIF5B-RET cells was 10 to 50 nM. The IC50 on human RET kinase is no more than 10 nM.
For `COc1ccnc(C(=O)NC[C@@H]2[C@H]3CN(c4ccc(-c5cc(-c6cnn(C)c6)cn6ncc(C#N)c56)cn4)C[C@@H]23)c1` [Example 193, N-(((1R,5S,6s)-3-(5-(3-cyano-6-(1-methyl-1H-pyrazol-4-yl)pyrazolo[1,5-a]pyridin-4-yl)pyridin-2-yl)-3-azabicyclo[3.1.0]hexan-6-yl)methyl)-4-methoxypicolinamide], the GI50 on BAF3-KIF5B-RET cells is no more than 10 nM. On human RET kinase, the half-inhibitory concentration (IC50) is no more than 10 nM.
For `COc1cc(C(=O)NC[C@@H]2[C@H]3CN(c4ccc(-c5cc(-c6cnn(C)c6)cn6ncc(C#N)c56)cn4)C[C@@H]23)ccn1` [Example 194, N-(((1R,5S,6s)-3-(5-(3-cyano-6-(1-methyl-1H-pyrazol-4-yl)pyrazolo[1,5-a]pyridin-4-yl)pyridin-2-yl)-3-azabicyclo[3.1.0]hexan-6-yl)methyl)-2-methoxyisonicotinamide], on BAF3-KIF5B-RET cells, the GI50 lay within 10 to 50 nM. For the same compound, at human RET kinase, the half-maximal inhibitory concentration (IC50) is no more than 10 nM.
Take `COc1cccc(C(=O)NC[C@@H]2[C@H]3CN(c4ccc(-c5cc(-c6cnn(C)c6)cn6ncc(C#N)c56)cn4)C[C@@H]23)n1` [Example 195, N-(((1R,5S,6s)-3-(5-(3-cyano-6-(1-methyl-1H-pyrazol-4-yl)pyrazolo[1,5-a]pyridin-4-yl)pyridin-2-yl)-3-azabicyclo[3.1.0]hexan-6-yl)methyl)-6-methoxypicolinamide]: the GI50 at BAF3-KIF5B-RET cells is no more than 10 nM. This compound also yielded an IC50 against human RET kinase of no more than 10 nM.
As to `Cn1cc(-c2cc(-c3ccc(N4C[C@@H]5[C@@H](CNC(=O)c6ccnc(C(F)(F)F)c6)[C@@H]5C4)nc3)c3c(C#N)cnn3c2)cn1` [Example 196, N-(((1R,5S,6s)-3-(5-(3-cyano-6-(1-methyl-1H-pyrazol-4-yl)pyrazolo[1,5-a]pyridin-4-yl)pyridin-2-yl)-3-azabicyclo[3.1.0]hexan-6-yl)methyl)-2-(trifluoromethyl)isonicotinamide], at BAF3-KIF5B-RET cells, the GI50 lay in the range of 50 to 100 nM. This compound also had an IC50 on human RET kinase of no more than 10 nM.
For `Cn1cc(-c2cc(-c3cnc(N4C[C@@H]5C[C@](C)(NC(=O)c6ncccc6Cl)C[C@@H]5C4)cn3)c3c(C#N)cnn3c2)cn1` [Example 199, 3-chloro-N-((3aR,5r,6aS)-2-(5-(3-cyano-6-(1-methyl-1H-pyrazol-4-yl)pyrazolo[1,5-a]pyridin-4-yl)pyrazin-2-yl)-5-methyloctahydrocyclopenta[c]pyrrol-5-yl)picolinamide], the GI50 at BAF3-KIF5B-RET cells lay within 10 to 50 nM. The compound further registered a half-inhibitory concentration (IC50) against human RET kinase of no more than 10 nM.
